One experiment concerns S. aureus (NCTC). In kind it is cell-based, Staphylococcus aureus. The settings on record: 6 h. How it is done: (§1) The evaluation of the minimum bactericidal concentration (MBC) was carried out as described in Bilikova et al, (2015, Peptides 68:190-196) and the evaluation of the effective concentration to reduce 50% of the bacterial population (EC50) of the two peptides was carried out with the micro-dilutions of the broth as described in Wang H X and Ng T B (2003, Peptides 24:969-972). Standard deviations for triple incubations of each plate and EC50 evaluation were determined using GraphPad Prism version 6.00 (Graph-Pad Software, La Jolla Calif. USA) Staphylococcus aureus A control stock suspension was prepared in which 10^3 CFU of […] (6571 strain) were inoculated in 10 ml of BPW. […] Also in this case, the dilution series included control plates inoculated with DMSO without the peptide and control plates with bacteria only. 50 μl of each bacterial suspension were poured onto petri dishes with blood agar or rabbit plasma fibrinogen agar and incubated for 20 hours at 37° C. In all the investigated experimental conditions, the plate counting method was used to estimate the bactericidal activity of the peptides. Specifically, the number of colonies grown on plates with agar seeded with bacterial suspensions in the absence or in the presence of individual dilutions of peptides was counted and compared. […]

The test system of experiment [1] is L. monocytogenes (LM2 food-isolated strain). The experiment in a line: Antimicrobial activity of Bac-amp1 coupled gold nanoparticles (CFU count). In kind it is cell-based, Listeria monocytogenes. The settings on record: 0.10 μM to 0.58 μM, 15×10^4 CFU/mL, 6 h at 37° C. How it is done: The bactericidal efficacy of the functionalized gold nanoparticles prepared in Example 6 was determined against L. monocytogenes (LM2 food-isolated strain) and S. Typhimurium (ATCC 13311 strain) bacteria, which allowed the evaluation of the minimal bactericidal concentration (MBC50), corresponding to the lowest peptide concentration able to cause at least 50% reduction in the number of viable bacteria on agar plates.
L. monocytogenes and S. Typhimurium were grown at 37° C. in Half Fraser (Biorad-Italia) and BPW (Biomerieux-Italia) broths, respectively. […]
Data were determined by numbering the surviving colony forming units (CFU) in the Au—NPs-Bac-amp1 plates and in the Au—NPs plates and were expressed as percent decrease in the number of CFU with respect to the initial number of CFU. […]
Thus, in another set of experiments, the activity of Bac-amp1 coupled nanoparticles was determined incubating 15×10^4 CFU/mL (colony forming units/mL) of Listeria with increasing concentrations, ranging from 0.10 μM to 0.58 μM, of coupled nanoparticles (Au—NPs-Bac-amp1 plates), non-functionalized gold nanoparticles (Au—NPs plates) or free peptides (Bac-amp1 plates) for 6 h at 37° C. The number of viable colonies for the different plates at each concentration tested were counted.

In experiment [2] the test system is L. monocytogenes biofilms. The experiment in a line: Antibiofilm activity assay with SEM on steel discs. In kind it is cell-based, Listeria monocytogenes. How it is done: The activity of the Bac-amp1 and IDR-1018 peptides on L. monocytogenes biofilms was further investigated by scanning electron microscopy (SEM).
Specifically, in this example the three-dimensional biofilm architecture, developed on stainless steel materials, was studied.
The Aisi 304 stainless steel discs with a diameter of 14.5 mm (SS) were treated with 600 μl of standardized inoculum in the presence or absence of each of the peptides at the concentration of 25 μM or 50 μM, or with control medium, according to the same method of Example 4a and repeatedly washed in sterile PBS to remove planktonic cells and fixated on a new plate with 1 ml of Karnovsky fixative containing 5% glutaraldehyde, 4% paraformaldehyde in buffer 0.064 M (Electronic Microscopy Science, Hatfield, Pa., USA) for 1 hour at 4° C. Thereafter, the samples were washed in 0.1 M cacodylate sodium buffer at pH 7.4 (Electronic Microscopy Science, Hatfield, Pa., USA) and the fixated cells were dehydrated in a series of aqueous acetone solutions at different concentrations, in particular 25%, 50%, 75% and 100%. The samples were glued onto polished aluminium sample holders (Electronic Microscopy Science, Hatfield, Pa., USA) and uniformly vacuum coated with a 20-nm thick gold layer with the K950 high-vacuum Turbo Evaporator and a K 350 coupling (Emitech Ltd, Ashford, UK). The coated samples were examined at the JEOL 6700 FEG Field Emission Electron Microscope (SEM Jeol, City and State) with magnification from 1000× to 5000×. For each sample, a number of images (5-10), acquired as electronic images were randomly analyzed.

Another experiment concerns S. thyphimurium (ATCC). In kind it is cell-based, Salmonella typhimurium. The settings on record: 6 h. The procedure:
as §1, with “Salmonella typhimurium” for “Staphylococcus aureus”, “(ATCC13311” for “(6571”, “BPW (Oxoid, Basingstoke, UK).” for “BPW.”, “Each” for “Also in this case, the”, “alone.” for “only. 50 μl of each bacterial suspension were poured onto petri dishes with blood agar or rabbit plasma fibrinogen agar and incubated for 20 hours at 37° C.”, “compared. The standard deviations of the triple incubations of each plate were determined using statistical software.” for “compared.”

Data on one substance can be found in US11478528B2, “Antimicrobial peptides against Listeria monocytogenes” (MATERIAS S.r.l., priority 2017, dated 2022).

Ends that are not written are not given here.

Take “VRLIVKVRIWRR-NH2 [Bac-amp1, VRLIVKVRIWRR-NH2]”: the figures for the EC50 with S. aureus (NCTC) and in the experiment with S. thyphimurium (ATCC) were 1660 nM and 2830 nM, respectively. Besides, the “bacterial cell death versus concentration” value in experiment [1] is reported as “dose-dependent bacterial cell death”. Moreover, the “biofilm formation by SEM” value in experiment [2] (25 μM) is reported as “significantly reduces the formation of biofilm”. Further, in experiment [2] (50 μM), the “cells on steel discs by SEM, 5000× image” value is on record as “near absence of cells”.
